How the values were obtained:
Format in all cases: cell-based, murine
[1] = system: NF-κB (p65); test: NF-κB p65 nuclear translocation in LPS-stimulated RAW 264.7 cells (immunoblotting, confocal microscopy)
Procedure: (§1) Total cellular proteins and the specific cytosolic and nuclear proteins were prepared using methods described in Chiang et al. Protein content was measured by the Bradford method (Bio-Rad). Protein was resolved by 5-20% gradient SDS-PAGE and subjected to immunoblotting using enhanced chemiluminescence reagents (ECL, Amersham). Monoclonal antibodies against PARP (Transduction Laboratories, Lexington, Ky.), GA3PDH (Biogenesis, Poole, UK), α-tubulin (Oncogene Science, Cambridge, UK), COX-2 (Cayman Chemical), phospho-(Ser32)-IκBα, phospho-IKKα(Ser180)/IKKβ(Ser181) (New England Biolabs, Beverly, Mass.), iNOS, IκBα, IKKα/β or NF-κB p65 (RelA) (Santa Cruz Biotechnology, Santa Cruz, Calif.) were used.
RAW 264.7 cells were seeded in chamber slides for 1 hour, and then treated with DMSO or dLGG (75 μg/mL) for 1 hour, with or without LPS stimulation for an additional 90 minutes. The cells were fixed, permeabilized with 0.1% Triton X-100, and stained with Hoechst 33342 (DNA marker), FITC-labeled anti-α-tubulin Ab (cytoplasm marker), or rabbit anti-p65 antibody visualized with goat anti-rabbit Rhodamine Red-labeled secondary antibody for analysis with a Zeiss LSM 510 META confocal laser-scanning microscope.
The distribution of NF-κB (p65) in nucleus and cytoplasm was determined using immunoblotting. Cells were treated with various concentrations of dLGG for 1 hour and then stimulated with LPS (1 μg/mL) for another 90 min. Nuclear and cytosolic fractions were immunoblotted with p65 NF-κB antibody. A slight increase in nuclear p65 protein (1.5-fold) was detected when macrophages were treated with a low concentration of dLGG (5 μg/mL), compared to LPS alone (1.0). With higher concentrations of dLGG (25 to 75 μg/mL), the level of nuclear p65 decreased accordingly. Cytoplasmic levels of NF-κB (p65) were not affected by dLGG treatment of LPS-stimulated macrophages.
The effect of dLGG on NF-κB (p65) nuclear translocation was also examined by confocal microscopy. Macrophages were treated with 0.4% DMSO, or LPS (1 μg/mL) with or without dLGG (75 μg/mL), and stained with fluorescence-labeled antibodies against p65 (red). To distinguish nucleus from cytosol, cells were also stained with DNA-specific Hoechst 33342 (blue) and with anti-α-tubulin antibody (green). In vehicle-treated cells, p65 protein was mainly found in the cytosol of test cells.

[2] = system: IκBα; test: IκBα phosphorylation and degradation in LPS-stimulated RAW 264.7 cells (Western blot); conditions: dLGG 1 h, LPS 1 μg/mL 30 min
Procedure: as §1
Cells were treated with various concentrations of dLGG for 1 h followed by the addition of LPS (1 μg/mL) for 30 min. Western blots was then conducted using antibodies for IκBα or phospho-IκBα.

[3] = system: IKKα/β; test: IKKα/β phosphorylation, IRAK-1 degradation and IKK kinase assay in LPS-stimulated RAW 264.7 cells
Procedure: Whole cell lysates (300 μg) of macrophages were pre-cleaned by incubation with 0.25 μg IgG and 20 μL protein A/G plus agarose beads (Santa Cruz) for 30 minutes at 4° C. Supernatants were then collected and incubated with IKKα/β antibody and protein A/G plus agarose beads at 4° C. overnight. Precipitates were washed with an IP buffer and a kinase buffer. IKK kinase activity was assayed by adding 1 μg of GST-IκBα fusion protein (Santa Cruz) and 200 μM ATP in 20 μL kinase buffer for 30 minutes at 30° C. and then stopped by mixing with the Laemmli's loading buffer and heated at 100° C. for 5 minutes. Samples were then subjected to immunoblotting.
Assays were carried out in RAW 264.7 cells to examine the effects of dLGG on levels of IKKα/β and phospho-IKKα/β, the upstream kinase of IκBα in the NF-κB signaling pathway, and the upstream kinase, IRAK-1, for activating IKK complex. Cells were pretreated with various concentrations of dLGG for 1 hours, followed by LPS stimulation (1 μg/mL for 30 min). Specific IKKα/β and the phosphorylated forms of IKKα/β or GST-IκBα were detected by immunoblotting. IKKα/β immunoprecipitates were prepared from total cell lysate using anti-IKKα/β antibody and subsequently subjected to IKK kinase assay using GST-IκBα as substrate. […] (nuclear protein) and α-tubulin (cytosolic protein) were used as loading controls.
IKK enzymatic activity was also determined to confirm whether it was correlated to the inhibition of IκBα phosphorylation by dLGG. Immunoprecipitated IKK proteins obtained from control cells (±LPS/−dLGG) or cells treated with LPS+dLGG were assayed for phosphorylation of GST-IκBα. The LPS-induced enzymatic phosphorylation of IκBα (p-IκBα) was decreased approximately 42% when treated with 75 μg/mL dLGG. The levels of immunoprecipitated IKK proteins were not affected by dLGG.

[4] = system: COX-2 protein; test: COX-2 protein expression (immunoblotting) in LPS-stimulated macrophages; conditions: LPS 18 h
Procedure: as §1
It was further examined whether dLGG affects COX-2 mRNA and protein expression using RT-PCR and immunoblotting. Cells were treated with dLGG for 1 hour, then LPS (1 μg/mL) was added for 18 hours. Total cellular protein (20 μg) was subjected to immunoblotting. Quantification of COX-2 mRNA and protein expression involved normalization to GA3PDH by densitometry.

## CC/C=C\C/C=C\C/C=C\CCCCCCCC(=O)OC[C@H](CO[C@@H]1O[C@H](CO)[C@H](O)[C@H](O)[C@H]1O)OC(=O)CCCCCCC/C=C\C/C=C\C/C=C\CC [dLGG, 1,2-di-O-α-linolenoyl-3-O-β-galactopyranosyl-sn-glycerol]
[1]; 5 μg/mL, LPS 90 min
  Nuclear p65 protein compared to LPS alone (1.0): 1.5 fold
[1]; 75 μg/mL, LPS 1 μg/mL
  p65 nuclear translocation by confocal microscopy: drastically inhibited
[1]; 25 to 75 μg/mL, LPS 90 min
  Level of nuclear p65: decreased
[1]; LPS-stimulated macrophages
  Cytoplasmic levels of NF-κB (p65): not affected
[2]
  IκBα degradation: prevented
  LPS-induced phosphorylation of IκBα: inhibited
[3]; 75 μg/mL
  Decrease of LPS-induced enzymatic phosphorylation of IκBα (IKK kinase assay, GST-IκBα): approximately 42%
[3]; LPS-stimulated
  IRAK-1 degradation in LPS-stimulated macrophages: inhibited
[3]; dLGG 1 h, LPS 1 μg/mL 30 min
  IKKα/β levels: little affected
  LPS-induced phosphorylation of IKKα/β: inhibited
[4]; 50 μg/mL
  Suppression of LPS-induced COX-2 protein synthesis: approximately 60%
[4]; 75 μg/mL
  COX-2 protein level: barely detectable
